Active and inactive are the calls of the source. The calls are words filed in the database; no cut-off is given here.
How the values were obtained:
[1] = tested on: A549; experiment: Growth inhibition of human A549 cells measured after 72 hrs by SRB assay; assay type: functional, cell-based; conditions: A549, 72 h
[2] = tested on: HCT-116; experiment: Growth inhibition of human HCT116 cells measured after 72 hrs by SRB assay; assay type: functional, cell-based; conditions: HCT-116, 72 h
[3] = tested on: HL-60; experiment: Cell cycle arrest in human HL60 cells assessed as accumulation at G2/M phase at 2 uM after 24 hrs by propidium iodide staining-based flow cytometric analysis relative to control; assay type: functional
[4] = tested on: Nucleic Acid; experiment: Binding affinity to linearized Escherichia coli pBR322 DNA assessed as inhibition of T4-DNA ligase-mediated circularization at 100 uM after 30 mins by agarose gel electrophoresis; assay type: nucleic-acid assay
[5] = tested on: HCT-116; experiment: Antitumor activity against human HCT116 cells transplanted in nude mouse assessed as decrease in tumor volume at 15 mg/kg, iv administered three times per week for three weeks measured on day 21 (reference value: 1245 +/- 192 mm'3); assay type: functional
[6] = tested on: HCT-116; experiment: Antitumor activity against human HCT116 cells transplanted in nude mouse assessed as tumor volume at 15 mg/kg, iv administered three times per week for three weeks relative to control; assay type: functional
[7] = tested on: Mus musculus; experiment: Toxicity in nude mouse xenografted with human HCT116 cells assessed as body weight change at 15 mg/kg, iv administered three times a week for 3 weeks (reference value: 19.4 g); assay type: organism-based, HCT-116; set-up: dose 15 mg/kg, route intravenous; conditions: in vivo, 504 h
[8] = tested on: HL-60; experiment: Cell cycle arrest in human HL60 cells assessed as accumulation at G2/M phase at 8 uM after 24 hrs by propidium iodide staining-based flow cytometric analysis relative to control; assay type: functional

Row | Structure (SMILES) | IC50 [1] [µM] | IC50 [2] [µM] | further results
1 | CN(C)CCCNC(=O)c1cc2c3ccccc3[nH]c2c2cc(Br)ccc12 [listing 1 of 2 here] | 8.2 | 9.5 | Activity [3]: 61.3%
2 | CN(C)CCNC(=O)c1cc2c3ccccc3[nH]c2c2cc(N(C)C)ccc12 | 23.1 | 20.1 | 
3 | O=C(NCCN1CCCC1)c1cc2c3ccccc3[nH]c2c2cc(Br)ccc12 | 10.6 | 11 | 
4 | CN(C)CCN1C(=O)c2cccc3c2c(cc2c4ccccc4sc32)C1=O | 0.4 | 2.2 | inhibition [4]: Active; Activity [3]: 52.48%
5 | CN(C)CCN1C(=O)c2cccc3cc(N)cc(c23)C1=O.O=C(O)CC(O)(CC(=O)O)C(=O)O [AMONAFIDE CITRATE] |  |  | Activity [5]: 664 mm3; T/C [6]: 52.74%; Activity [7]: 14.6 g
6 | O=C(NCCN1CCCCC1)c1cc2c3ccccc3[nH]c2c2cc(Br)ccc12 | 19.5 | 17 | 
7 | CNCCNC(=O)c1cc2c3ccccc3[nH]c2c2cc(Br)ccc12 | 17.5 | 16.2 | 
8 | CN(C)CCCNC(=O)c1cc2c3ccccc3[nH]c2c2cc(Br)ccc12.O=C(O)CC(O)(CC(=O)O)C(=O)O |  |  | Activity [5]: 676 mm3; T/C [6]: 58.97%; Activity [7]: 16.3 g
9 | O=C(NCCN1CCNCC1)c1cc2c3ccccc3[nH]c2c2cc(Br)ccc12 | 68.4 | 70.3 | 
10 | O=C(NCCN1CCOCC1)c1cc2c3ccccc3[nH]c2c2cc(Br)ccc12 | 9.4 | 64.9 | 
11 | CN(C)CCNC(=O)c1cc2c3ccccc3[nH]c2c2cc(Br)ccc12 | 12.1 | 8.8 | inhibition [4]: Active; Activity [8]: 48.13%
12 | CN(C)CCCNC(=O)c1cc2c3ccccc3[nH]c2c2cc(Br)ccc12 [listing 2 of 2 here] |  |  | inhibition [4]: Active
13 | O=C(NCCO)c1cc2c3ccccc3[nH]c2c2cc(Br)ccc12 | > 100 | > 100 | 
14 | CN(C)CCNC(=O)c1cc2c3ccccc3[nH]c2c2cc(N)ccc12 | 38.4 | 36.2 | 
15 | CN(C)CCNC(=O)c1cc2c3ccccc3[nH]c2c2ccccc12 | 23.8 | 23.8 | 
16 | CN(C)CCN1C(=O)c2cccc3cc(N)cc(c23)C1=O [AMONAFIDE] | 8.1 | 15.3 | 
17 | O=C(NCCNCCO)c1cc2c3ccccc3[nH]c2c2cc(Br)ccc12 | 25.6 | 17.5 | 
